Active and inactive are the calls of the source.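 Rule for the calls: active = a fitted half-maximal concentration EC50 for the rise in nuclear signal no higher than ten times the top dose tested; inconclusive = flat fit with activity between 30% and 70%, or unusable fit; inactive = EC50 beyond ten times the top dose.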
What follows are molecules tested against Hypoxia-inducible factor 1-alpha (Homo sapiens) (UniProt Q16665) (assay: HIF pathway activation, GFP-HIF1alpha translocation – imaging, fluorescence, U2OS GFP-HIF1alpha, confirmation (AID 434951)). Conditions: U2OS GFP-HIF1alpha nuclear intensity, high-content imaging.
Sequence of Hypoxia-inducible factor 1-alpha (Homo sapiens) (Q16665 whole entry, looked up): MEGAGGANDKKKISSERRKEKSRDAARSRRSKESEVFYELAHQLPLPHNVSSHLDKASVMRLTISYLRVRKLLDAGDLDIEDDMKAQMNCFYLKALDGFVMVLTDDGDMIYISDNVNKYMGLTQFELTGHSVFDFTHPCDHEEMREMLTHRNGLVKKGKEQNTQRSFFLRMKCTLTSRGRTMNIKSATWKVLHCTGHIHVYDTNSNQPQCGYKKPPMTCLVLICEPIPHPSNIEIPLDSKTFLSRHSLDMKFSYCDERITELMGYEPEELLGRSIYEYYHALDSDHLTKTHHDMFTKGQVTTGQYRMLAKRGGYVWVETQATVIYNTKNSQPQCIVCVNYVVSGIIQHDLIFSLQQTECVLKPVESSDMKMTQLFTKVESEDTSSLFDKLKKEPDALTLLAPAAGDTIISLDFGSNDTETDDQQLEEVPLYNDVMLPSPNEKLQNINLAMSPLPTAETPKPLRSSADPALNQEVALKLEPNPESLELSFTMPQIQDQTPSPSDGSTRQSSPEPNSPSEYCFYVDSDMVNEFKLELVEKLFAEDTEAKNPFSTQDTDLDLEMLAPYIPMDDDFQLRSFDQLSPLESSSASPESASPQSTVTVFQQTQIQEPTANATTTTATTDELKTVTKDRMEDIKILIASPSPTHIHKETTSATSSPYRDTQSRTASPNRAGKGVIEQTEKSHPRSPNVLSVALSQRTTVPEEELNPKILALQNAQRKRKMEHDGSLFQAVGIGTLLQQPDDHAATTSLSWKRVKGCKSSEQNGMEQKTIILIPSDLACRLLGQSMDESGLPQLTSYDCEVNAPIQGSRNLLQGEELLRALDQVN
For COc1ccc(N2CCN(C(=O)CN(C)S(=O)(=O)c3cc(C)ccc3OC)CC2)cc1, the EC50 was > 35 µM (inactive). For COc1cc2c(cc1OC)C(c1ccccc1)N(S(C)(=O)=O)CC2 (configuration not stated), the EC50 was > 35 µM (inactive). For Cn1nc(C(F)(F)F)cc1C(=O)NC1CCCCCC1, the EC50 was > 35 µM (inactive). In the case of COc1ccccc1NC(=O)c1nc(S(=O)(=O)Cc2ccccc2)ncc1Cl, the EC50 is reported as > 35 µM (inactive). For CC(C)Cn1c(/C=N/Nc2nc3ccccc3[nH]2)nc2ccccc21, the EC50 was 9.05 µM. In the case of Nc1ccc(C(=O)Nc2ccc3nc(-c4ccncc4)[nH]c3c2)cc1, the EC50 is reported as > 35 µM (inactive). C=CCn1c(N2CCCCCC2)nc2c1c(=O)[nH]c(=O)n2C was tested, and the EC50 was > 35 µM (inactive). For CN(Cc1ccccc1)C(=O)CC(=O)N(C)Cc1ccccc1, the EC50 was > 35 µM (inactive). For COC(=O)/C(=C(/F)SCC(C)=O)C(F)(F)F, the EC50 was > 35 µM (inactive). COC(=O)[C@H](CCSC)NC(=O)c1cccnc1SC was tested, and the EC50 was > 35 µM (inactive). For CCC(=O)c1ccc(N2CCN(C(=O)c3ccc(Br)cc3)CC2)c(F)c1, the EC50 was > 35 µM (inactive). O=C(Nc1nc2ccc([N+](=O)[O-])cc2s1)c1c(F)cccc1F was tested, and the EC50 was > 35 µM (inactive). In the case of O=C(N/N=C/c1cc2cc3c(cc2nc1Cl)OCO3)c1ccncc1, the EC50 is reported as > 35 µM (inactive). With Cc1ccc(OCCNC(=O)CCc2nc3sc4c(c3c(=O)[nH]2)CCCC4)cc1 the EC50 was > 35 µM (inactive). COc1cccc(/C=N/Nc2nc3ccccc3[nH]2)c1O showed an EC50 of 13.1 µM. In the case of Cc1ccc(Oc2ncc(CN3CC(C)OC(C)C3)s2)cc1 (configuration not stated), the EC50 is reported as > 35 µM (inactive). For CCOC(=O)C1CCCN(C(=O)c2ccc3nc(-c4ccccc4)c(-c4ccccc4)nc3c2)C1 (configuration not stated), the EC50 was > 35 µM (inactive). In the case of COc1ccc(C(=O)N2CCCCCC2)cc1S(=O)(=O)N1CCOCC1, the EC50 is reported as > 35 µM (inactive). O=C(NC1=NCCS1)c1cccc(NC(=O)c2ccco2)c1 was tested, and the EC50 was > 35 µM (inactive). For O=C(COc1ccccc1)N(Cc1cccc(F)c1)C1CCS(=O)(=O)C1 (configuration not stated), the EC50 was > 35 µM (inactive). Cc1ccc2[nH]c(C(=O)N/N=C/c3ccccc3O)c(C)c2c1 gave an EC50 of 7.06 µM. With Cc1ccc(/C=N/NC(=O)CN2CCN(Cc3ccccc3Cl)CC2)o1 the EC50 was > 35 µM (inactive). Cc1cc(C)n(-c2nc3ccccc3c(=O)n2OCC#N)n1 was tested, and the EC50 was 11.4 µM. For O=C(CCCOc1ccc(Cl)cc1Cl)N/N=C/c1ccccc1O, the EC50 was 7.41 µM. With COc1cc(NC(=O)CN2C(=O)c3ccccc3Sc3ccc(C(=O)N4CCOCC4)cc32)cc(OC)c1OC the EC50 was > 35 µM (inactive). CC1CCN(Cc2c(C(=O)N/N=C/c3ccccc3O)nnn2-c2nonc2N)CC1 was tested, and the EC50 was > 35 µM (inactive). With CC(=O)NCCC(=O)Nc1cc(S(=O)(=O)N2CCOCC2)ccc1N1CCOCC1 the EC50 was > 35 µM (inactive). With Cc1ccc(C(=O)Nc2cccc([N+](=O)[O-])c2)cc1S(=O)(=O)Nc1ccc(NC(=O)c2ccccc2)cc1 the EC50 was > 35 µM (inactive). With CCC(=O)NC(c1ccc(C)cc1)c1ccc2cccnc2c1O (configuration not stated) the EC50 was 3.85 µM. With COc1cnc(-c2ccccn2)nc1N(C)c1ccccc1 the EC50 was 9.27 µM. For COc1cccc(CNC(=O)CCCn2c(=S)[nH]c3cc4c(cc3c2=O)OCO4)c1, the EC50 was > 35 µM (inactive). With COc1ccccc1OCC(=O)N/N=C/c1c(O)ccc2ccccc12 the EC50 was 6.2 µM. For O=C(N/N=C/c1cccnc1)c1ccc(NC(=O)c2ccc(Cl)cc2)cc1, the EC50 was > 35 µM (inactive). CCOC(=O)c1c(C)[nH]c(C)c1S(=O)(=O)N1c2ccccc2CC1C (configuration not stated) was tested, and the EC50 was > 35 µM (inactive). CCC1CCc2sc(C(=O)NCc3ccccn3)cc2C1 (configuration not stated) was tested, and the EC50 was > 35 µM (inactive). In the case of COCCNC(=O)C(=O)NCC1OCCN1S(=O)(=O)c1cc(F)ccc1F (configuration not stated), the EC50 is reported as > 35 µM (inactive). In the case of O=C(CN(Cc1ccc(F)cc1)C(=O)CCC(=O)Nc1nccs1)NCC1CCCO1 (configuration not stated), the EC50 is reported as > 35 µM (inactive). In the case of Cc1snc(SCC(=O)N/N=C(\N)COc2cccc(C(F)(F)F)c2)c1C#N, the EC50 is reported as 22.5 µM. For CCCCc1c(C)nc(N)[nH]c1=O, the EC50 was > 35 µM (inactive). With CC(NC(=O)C12CC3CC(CC(O)(C3)C1)C2)c1ccc(Cl)cc1Cl (configuration not stated) the EC50 was > 35 µM (inactive). With COc1ccc(C2NN=C(c3ccc(C)cc3)S2)cc1 (configuration not stated) the EC50 was > 35 µM (inactive). Work on COc1cccc2sc(Nc3nc(-c4ccccn4)cs3)nc12 yielded an EC50 of 6.13 µM. Molecule O=C(N/N=C\c1cc(Cl)ccc1O)c1ccc(S(=O)(=O)N2CCCCC2)cc1 has an EC50 of 5.75 µM. CCOC(=O)c1c(C)[nH]c(C(=O)N/N=C\c2ccccc2O)c1C was tested, and the EC50 was 5.66 µM. With Cc1cc(SCC(=O)N/N=C/c2ccc(O)cc2O)c(C)cc1Br the EC50 was 32.3 µM. In the case of Cc1ccc(C)c(OCC(=O)O/N=C(\N)c2cccc([N+](=O)[O-])c2)c1, the EC50 is reported as > 35 µM (inactive). Cc1cc(NC(=O)CSc2nc3c(c(=O)n2-c2ccc(Cl)cc2)SCC3)no1 was tested, and the EC50 was > 35 µM (inactive). Work on COc1cccc(/C=N/NC(=O)c2ccc(-c3ccccc3)cc2)c1O yielded an EC50 of 30.5 µM. With CCN(CC)S(=O)(=O)c1ccc(N2CCOCC2)c(NC(=O)c2cccc3ccccc23)c1 the EC50 was > 35 µM (inactive). Molecule O=C(CSCC(=O)Nc1ccccc1)N/N=C/c1c(O)ccc2ccccc12 has an EC50 of 4.45 µM. With Cc1ccc(NC(=O)Cn2cnc3c(=O)n(C)c(=O)n(C)c32)c(C)c1 the EC50 was > 35 µM (inactive). Work on O=C(N/N=C/c1c(O)ccc2ccccc12)c1cccc(C(F)(F)F)c1 yielded an EC50 of 8.56 µM.

Reference: PubChem BioAssay AID434951 (Broad Institute, 2010)
